# Reference: ChEMBL document CHEMBL1155237, “Selective inhibitors of the mutant B-Raf pathway: discovery of a potent and orally bioavailable aminoisoquinoline” (J Med Chem, 2009)
# Tests used:
# [1] = target: Calcium/calmodulin-dependent protein kinase kinase 1 (Homo sapiens) (UniProt Q8N5S9); assay: Inhibition of CAMKK1 assessed as enzyme activity at 1 uM relative to untreated control; parameters: scale not given: the % may be the effect or the level left
# [2] = system: Tyrosine-protein kinase ABL1 (Homo sapiens), P00519 [H396P]; assay: Inhibition of ABL1 H396P mutant assessed as enzyme activity at 1 uM relative to untreated control; parameters: scale not given: the % may be the effect or the level left
# [3] = target: Dual specificity mitogen-activated protein kinase kinase 4 (Homo sapiens) (UniProt P45985); assay: Inhibition of MEK4 assessed as enzyme activity at 1 uM relative to untreated control; parameters: scale not given: the % may be the effect or the level left
# [4] = system: Tyrosine-protein kinase ABL1 (Homo sapiens), P00519 [T315I]; assay: Inhibition of ABL1 T315I mutant assessed as enzyme activity at 1 uM relative to untreated control; parameters: scale not given: the % may be the effect or the level left
# [5] = target: Cyclin-dependent kinase 16 (Homo sapiens) (UniProt Q00536); assay: Inhibition of PCTK1 assessed as enzyme activity at 1 uM relative to untreated control; parameters: scale not given: the % may be the effect or the level left
# [6] = target: Bone morphogenetic protein receptor type-1B (Homo sapiens) (UniProt O00238); assay: Inhibition of BMPR1B assessed as enzyme activity at 1 uM relative to untreated control; parameters: scale not given: the % may be the effect or the level left
# [7] = target: RAC-gamma serine/threonine-protein kinase (Homo sapiens) (UniProt Q9Y243); assay: Inhibition of AKT3 assessed as enzyme activity at 1 uM relative to untreated control; parameters: scale not given: the % may be the effect or the level left
# [8] = system: Proto-oncogene tyrosine-protein kinase receptor Ret (Homo sapiens), P07949 [M918T]; assay: Inhibition of RET M918T mutant assessed as enzyme activity at 1 uM relative to untreated control; parameters: scale not given: the % may be the effect or the level left
# [9] = target: Myotonin-protein kinase (Homo sapiens) (UniProt Q09013); assay: Inhibition of DMPK assessed as enzyme activity at 1 uM relative to untreated control; parameters: scale not given: the % may be the effect or the level left
# [10] = target: Cyclin-dependent kinase 9 (Homo sapiens) (UniProt P50750); assay: Inhibition of CDK9 assessed as enzyme activity at 1 uM relative to untreated control; parameters: scale not given: the % may be the effect or the level left
# [11] = target: Fibroblast growth factor receptor 4 (Homo sapiens) (UniProt P22455); assay: Inhibition of FGFR4 assessed as enzyme activity at 1 uM relative to untreated control; parameters: scale not given: the % may be the effect or the level left
# [12] = Clearance in Sprague-Dawley rat at 2 mg/kg, iv and 5 mg/kg, po; assay type: ADME, organism-based; conditions: in vivo
# [13] = target: Ephrin type-B receptor 1 (Homo sapiens) (UniProt P54762); assay: Inhibition of EPHB1 assessed as enzyme activity at 1 uM relative to untreated control; parameters: scale not given: the % may be the effect or the level left
# [14] = target: MAP/microtubule affinity-regulating kinase 3 (Homo sapiens) (UniProt P27448); assay: Inhibition of MARK3 assessed as enzyme activity at 1 uM relative to untreated control; parameters: scale not given: the % may be the effect or the level left
# [15] = target: Serine/threonine-protein kinase 3 (Homo sapiens) (UniProt Q13188); assay: Inhibition of MST2 assessed as enzyme activity at 1 uM relative to untreated control; parameters: scale not given: the % may be the effect or the level left
# [16] = system: Tyrosine-protein kinase ABL1 (Homo sapiens), P00519 [Y253F]; assay: Inhibition of ABL1 Y253F mutant assessed as enzyme activity at 1 uM relative to untreated control; parameters: scale not given: the % may be the effect or the level left
# Angiopoietin-1 receptor = Angiopoietin-1 receptor (Homo sapiens, UniProt Q02763); assay: Inhibition of Tie2
# A-375 = assay: Antitumor activity against human A375 SQ2 cells xenografted in CD1 mouse assessed as regression of tumor growth at 5 mg/kg, po qd for 14 days; assay type: functional
# [17] = target: Tyrosine-protein kinase Lck (Homo sapiens, UniProt P06239); assay: Inhibition of LCK
# [18] = system: Receptor-type tyrosine-protein kinase FLT3 (Homo sapiens), P36888 [N841I]; assay: Inhibition of FLT3 N841I mutant assessed as enzyme activity at 1 uM relative to untreated control; parameters: scale not given: the % may be the effect or the level left
# [19] = target: Dual specificity protein kinase TTK (Homo sapiens) (UniProt P33981); assay: Inhibition of TTK assessed as enzyme activity at 1 uM relative to untreated control; parameters: scale not given: the % may be the effect or the level left
# [20] = system: Mast/stem cell growth factor receptor Kit (Homo sapiens), P10721 [V559D,T670I]; assay: Inhibition of KIT V559D,T670I mutant assessed as enzyme activity at 1 uM relative to untreated control; parameters: scale not given: the % may be the effect or the level left
# [21] = target: Serine/threonine-protein kinase D2 (Homo sapiens) (UniProt Q9BZL6); assay: Inhibition of PRKD2 assessed as enzyme activity at 1 uM relative to untreated control; parameters: scale not given: the % may be the effect or the level left
# [22] = Oral bioavailability in CD1 mouse; assay type: ADME, organism-based; conditions: in vivo
# [23] = target: Membrane-associated tyrosine- and threonine-specific cdc2-inhibitory kinase (Homo sapiens) (UniProt Q99640); assay: Inhibition of PKMYT1 assessed as enzyme activity at 1 uM relative to untreated control; parameters: scale not given: the % may be the effect or the level left
# [24] = system: Tyrosine-protein kinase ABL1 (Homo sapiens), P00519 [F317I]; assay: Inhibition of ABL1 F317I mutant assessed as enzyme activity at 1 uM relative to untreated control; parameters: scale not given: the % may be the effect or the level left
# [25] = target: Myosin-IIIa (Homo sapiens) (UniProt Q8NEV4); assay: Inhibition of MYO3A assessed as enzyme activity at 1 uM relative to untreated control; parameters: scale not given: the % may be the effect or the level left
# [26] = target: Epithelial discoidin domain-containing receptor 1 (Homo sapiens) (UniProt Q08345); assay: Inhibition of DDR1 dyscoidin domain assessed as enzyme activity at 1 uM relative to untreated control; parameters: scale not given: the % may be the effect or the level left
# [27] = target: Focal adhesion kinase 1 (Homo sapiens) (UniProt Q05397); assay: Inhibition of PTK2 assessed as enzyme activity at 1 uM relative to untreated control; parameters: scale not given: the % may be the effect or the level left
# [28] = target: Serine/threonine-protein kinase MRCK gamma (Homo sapiens) (UniProt Q6DT37); assay: Inhibition of DMPK2 assessed as enzyme activity at 1 uM relative to untreated control; parameters: scale not given: the % may be the effect or the level left
# [29] = target: Wee1-like protein kinase 2 (Homo sapiens) (UniProt P0C1S8); assay: Inhibition of WEE2 assessed as enzyme activity at 1 uM relative to untreated control; parameters: scale not given: the % may be the effect or the level left
# [30] = target: Inhibitor of nuclear factor kappa-B kinase subunit epsilon (Homo sapiens) (UniProt Q14164); assay: Inhibition of IKK-epsilon assessed as enzyme activity at 1 uM relative to untreated control; parameters: scale not given: the % may be the effect or the level left
# [31] = system: Receptor-type tyrosine-protein kinase FLT3 (Homo sapiens), P36888 [D835H]; assay: Inhibition of FLT3 D835H mutant assessed as enzyme activity at 1 uM relative to untreated control; parameters: scale not given: the % may be the effect or the level left
# [32] = target: Cyclin-dependent kinase 17 (Homo sapiens) (UniProt Q00537); assay: Inhibition of PCTK2 assessed as enzyme activity at 1 uM relative to untreated control; parameters: scale not given: the % may be the effect or the level left
# [33] = target: ALK tyrosine kinase receptor (Homo sapiens) (UniProt Q9UM73); assay: Inhibition of ALK assessed as enzyme activity at 1 uM relative to untreated control; parameters: scale not given: the % may be the effect or the level left
# [34] = target: Inhibitor of nuclear factor kappa-B kinase subunit alpha (Homo sapiens) (UniProt O15111); assay: Inhibition of IKK-alpha assessed as enzyme activity at 1 uM relative to untreated control; parameters: scale not given: the % may be the effect or the level left
# [35] = target: NT-3 growth factor receptor (Homo sapiens) (UniProt Q16288); assay: Inhibition of TRKC assessed as enzyme activity at 1 uM relative to untreated control; parameters: scale not given: the % may be the effect or the level left
# [36] = target: Serine/threonine-protein kinase 24 (Homo sapiens) (UniProt Q9Y6E0); assay: Inhibition of MST3 assessed as enzyme activity at 1 uM relative to untreated control; parameters: scale not given: the % may be the effect or the level left
# Sequence of Serine/threonine-protein kinase 24 (Homo sapiens) (Q9Y6E0 whole entry, looked up): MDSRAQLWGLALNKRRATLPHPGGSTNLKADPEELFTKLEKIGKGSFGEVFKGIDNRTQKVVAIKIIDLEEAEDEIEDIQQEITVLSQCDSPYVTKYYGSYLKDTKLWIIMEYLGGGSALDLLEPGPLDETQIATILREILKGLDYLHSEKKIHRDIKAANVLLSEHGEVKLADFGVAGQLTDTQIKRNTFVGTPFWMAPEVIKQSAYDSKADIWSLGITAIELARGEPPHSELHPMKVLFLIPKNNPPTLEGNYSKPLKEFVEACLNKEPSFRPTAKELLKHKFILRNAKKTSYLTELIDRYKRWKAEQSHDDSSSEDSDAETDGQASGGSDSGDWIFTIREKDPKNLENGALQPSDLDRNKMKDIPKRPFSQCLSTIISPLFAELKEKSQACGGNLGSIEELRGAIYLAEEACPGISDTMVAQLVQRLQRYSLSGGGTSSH
# Sequence of Ephrin type-B receptor 1 (Homo sapiens) (P54762 whole entry): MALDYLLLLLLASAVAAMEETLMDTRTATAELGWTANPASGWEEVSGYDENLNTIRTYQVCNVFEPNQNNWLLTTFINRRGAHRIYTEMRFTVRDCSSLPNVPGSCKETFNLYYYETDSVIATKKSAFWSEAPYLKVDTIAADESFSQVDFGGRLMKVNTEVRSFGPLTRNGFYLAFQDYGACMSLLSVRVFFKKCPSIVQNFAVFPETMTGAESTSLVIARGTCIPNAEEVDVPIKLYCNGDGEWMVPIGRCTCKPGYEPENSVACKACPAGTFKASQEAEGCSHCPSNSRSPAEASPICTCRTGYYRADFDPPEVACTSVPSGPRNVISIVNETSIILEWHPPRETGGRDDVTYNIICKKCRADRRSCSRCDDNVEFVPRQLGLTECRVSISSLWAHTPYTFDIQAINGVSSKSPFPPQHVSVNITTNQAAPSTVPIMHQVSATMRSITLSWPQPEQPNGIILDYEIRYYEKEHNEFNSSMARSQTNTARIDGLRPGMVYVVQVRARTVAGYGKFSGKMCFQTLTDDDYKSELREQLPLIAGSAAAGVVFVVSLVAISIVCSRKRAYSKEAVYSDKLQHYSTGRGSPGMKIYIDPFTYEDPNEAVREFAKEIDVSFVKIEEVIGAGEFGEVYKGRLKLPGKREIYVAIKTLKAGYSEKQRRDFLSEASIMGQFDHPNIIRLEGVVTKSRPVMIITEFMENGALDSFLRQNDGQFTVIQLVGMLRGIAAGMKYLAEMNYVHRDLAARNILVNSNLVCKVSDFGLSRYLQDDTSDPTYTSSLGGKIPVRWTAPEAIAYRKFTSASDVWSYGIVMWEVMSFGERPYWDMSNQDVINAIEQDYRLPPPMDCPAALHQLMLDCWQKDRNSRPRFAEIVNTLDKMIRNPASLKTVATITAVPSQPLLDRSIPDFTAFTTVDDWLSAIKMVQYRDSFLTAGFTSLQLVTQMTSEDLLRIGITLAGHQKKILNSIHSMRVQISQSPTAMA
# Sequence of Tyrosine-protein kinase Lck (P06239 whole entry): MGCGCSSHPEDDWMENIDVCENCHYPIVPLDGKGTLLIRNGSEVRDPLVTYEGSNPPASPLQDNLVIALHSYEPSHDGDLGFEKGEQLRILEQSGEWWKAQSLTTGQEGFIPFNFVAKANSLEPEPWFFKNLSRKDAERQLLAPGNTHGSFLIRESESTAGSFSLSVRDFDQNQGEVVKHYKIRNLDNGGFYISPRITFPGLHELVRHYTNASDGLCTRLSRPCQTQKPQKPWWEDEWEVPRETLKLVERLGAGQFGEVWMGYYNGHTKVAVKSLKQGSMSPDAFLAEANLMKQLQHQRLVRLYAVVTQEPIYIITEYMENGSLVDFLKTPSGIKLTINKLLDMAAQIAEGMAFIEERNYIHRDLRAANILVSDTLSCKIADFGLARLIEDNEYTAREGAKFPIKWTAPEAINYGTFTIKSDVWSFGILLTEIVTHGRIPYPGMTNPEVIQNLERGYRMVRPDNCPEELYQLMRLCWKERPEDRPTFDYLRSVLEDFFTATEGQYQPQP
# Sequence of NT-3 growth factor receptor (Homo sapiens) (Q16288 32-839 limits assumed): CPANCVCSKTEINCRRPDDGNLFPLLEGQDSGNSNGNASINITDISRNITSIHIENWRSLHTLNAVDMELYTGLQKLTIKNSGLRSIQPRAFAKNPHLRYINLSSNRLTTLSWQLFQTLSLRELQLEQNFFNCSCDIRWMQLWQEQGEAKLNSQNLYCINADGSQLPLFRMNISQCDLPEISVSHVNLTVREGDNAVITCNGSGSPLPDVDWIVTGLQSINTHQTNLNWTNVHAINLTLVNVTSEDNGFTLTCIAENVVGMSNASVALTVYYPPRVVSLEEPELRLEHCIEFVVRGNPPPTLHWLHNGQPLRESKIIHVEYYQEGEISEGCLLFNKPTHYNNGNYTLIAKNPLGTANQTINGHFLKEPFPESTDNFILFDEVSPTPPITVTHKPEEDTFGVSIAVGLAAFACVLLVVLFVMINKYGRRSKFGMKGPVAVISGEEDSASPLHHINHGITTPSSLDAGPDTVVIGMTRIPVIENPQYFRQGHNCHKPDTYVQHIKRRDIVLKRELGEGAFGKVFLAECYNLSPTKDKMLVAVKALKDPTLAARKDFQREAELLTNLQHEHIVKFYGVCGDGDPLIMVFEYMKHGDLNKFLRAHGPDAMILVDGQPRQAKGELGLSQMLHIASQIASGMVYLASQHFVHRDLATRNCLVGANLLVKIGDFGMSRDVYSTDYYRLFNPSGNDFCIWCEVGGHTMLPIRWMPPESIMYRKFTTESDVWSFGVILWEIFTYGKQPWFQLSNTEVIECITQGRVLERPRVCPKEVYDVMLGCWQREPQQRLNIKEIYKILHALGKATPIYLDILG
# Sequence of MAP/microtubule affinity-regulating kinase 3 (Homo sapiens) (P27448 whole entry, looked up): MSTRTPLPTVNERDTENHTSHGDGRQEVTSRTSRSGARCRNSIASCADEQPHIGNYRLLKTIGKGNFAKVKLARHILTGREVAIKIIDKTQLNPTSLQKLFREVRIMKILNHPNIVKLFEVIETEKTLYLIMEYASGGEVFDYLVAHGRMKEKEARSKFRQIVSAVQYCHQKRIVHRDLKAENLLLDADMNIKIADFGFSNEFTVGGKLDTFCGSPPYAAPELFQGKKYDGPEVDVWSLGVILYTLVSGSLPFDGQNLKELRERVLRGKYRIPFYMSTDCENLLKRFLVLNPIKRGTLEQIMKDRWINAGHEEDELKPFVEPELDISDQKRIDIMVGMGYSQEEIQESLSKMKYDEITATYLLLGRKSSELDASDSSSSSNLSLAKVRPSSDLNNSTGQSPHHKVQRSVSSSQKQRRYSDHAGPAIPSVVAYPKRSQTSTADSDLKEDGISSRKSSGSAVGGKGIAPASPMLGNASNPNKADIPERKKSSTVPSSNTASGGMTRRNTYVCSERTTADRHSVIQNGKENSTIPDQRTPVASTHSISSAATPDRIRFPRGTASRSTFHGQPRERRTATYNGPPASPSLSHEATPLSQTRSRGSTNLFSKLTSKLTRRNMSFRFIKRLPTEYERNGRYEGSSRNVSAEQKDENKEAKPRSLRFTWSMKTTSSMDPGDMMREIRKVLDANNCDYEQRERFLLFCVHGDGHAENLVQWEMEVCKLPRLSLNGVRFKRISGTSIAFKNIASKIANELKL
# Sequence of Membrane-associated tyrosine- and threonine-specific cdc2-inhibitory kinase (Homo sapiens) (Q99640 whole entry): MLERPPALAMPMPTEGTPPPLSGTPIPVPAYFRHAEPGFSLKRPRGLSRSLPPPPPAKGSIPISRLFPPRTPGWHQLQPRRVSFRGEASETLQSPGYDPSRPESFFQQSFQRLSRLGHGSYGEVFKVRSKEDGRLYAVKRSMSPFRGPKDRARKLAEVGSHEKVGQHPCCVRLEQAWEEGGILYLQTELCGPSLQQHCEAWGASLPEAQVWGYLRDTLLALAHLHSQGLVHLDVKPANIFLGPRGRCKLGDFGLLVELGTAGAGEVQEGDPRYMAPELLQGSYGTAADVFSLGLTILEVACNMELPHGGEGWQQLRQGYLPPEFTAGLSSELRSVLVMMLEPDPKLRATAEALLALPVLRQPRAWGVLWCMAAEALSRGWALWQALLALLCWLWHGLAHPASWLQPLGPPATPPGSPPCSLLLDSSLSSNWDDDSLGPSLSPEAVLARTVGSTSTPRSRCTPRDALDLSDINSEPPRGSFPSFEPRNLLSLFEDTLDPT
# Sequence of Cyclin-dependent kinase 17 (Homo sapiens) (Q00537 whole entry, looked up): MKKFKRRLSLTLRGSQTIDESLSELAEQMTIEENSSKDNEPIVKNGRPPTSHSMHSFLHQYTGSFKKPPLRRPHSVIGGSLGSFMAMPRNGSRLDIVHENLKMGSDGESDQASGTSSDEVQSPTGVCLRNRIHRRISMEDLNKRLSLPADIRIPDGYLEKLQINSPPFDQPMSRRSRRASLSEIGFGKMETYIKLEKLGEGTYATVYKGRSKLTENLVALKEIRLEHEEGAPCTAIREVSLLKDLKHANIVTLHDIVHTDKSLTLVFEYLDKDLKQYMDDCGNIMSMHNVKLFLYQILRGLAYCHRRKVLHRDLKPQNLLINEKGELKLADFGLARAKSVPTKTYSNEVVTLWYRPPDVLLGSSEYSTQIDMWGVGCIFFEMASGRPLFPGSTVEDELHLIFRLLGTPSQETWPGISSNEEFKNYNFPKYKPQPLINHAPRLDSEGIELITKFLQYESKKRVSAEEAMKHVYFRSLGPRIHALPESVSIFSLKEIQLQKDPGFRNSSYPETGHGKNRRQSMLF
# Sequence of RAC-gamma serine/threonine-protein kinase (Homo sapiens) (Q9Y243 whole entry): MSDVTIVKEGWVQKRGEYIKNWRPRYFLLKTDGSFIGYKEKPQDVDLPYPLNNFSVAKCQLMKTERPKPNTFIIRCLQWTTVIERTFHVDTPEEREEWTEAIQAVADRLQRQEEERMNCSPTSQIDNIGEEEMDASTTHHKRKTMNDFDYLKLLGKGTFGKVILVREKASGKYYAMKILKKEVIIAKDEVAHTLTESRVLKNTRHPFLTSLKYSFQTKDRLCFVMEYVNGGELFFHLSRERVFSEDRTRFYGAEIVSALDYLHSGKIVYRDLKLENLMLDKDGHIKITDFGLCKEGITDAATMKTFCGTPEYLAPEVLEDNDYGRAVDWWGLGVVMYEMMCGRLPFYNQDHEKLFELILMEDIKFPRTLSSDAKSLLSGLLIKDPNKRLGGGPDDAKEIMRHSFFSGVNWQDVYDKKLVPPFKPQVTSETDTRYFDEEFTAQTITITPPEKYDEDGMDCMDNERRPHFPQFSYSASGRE
smiles,measurement,setting,value
Cc1ccc2c(Nc3ccc(Cl)cc3)nccc2c1Nc1ncccc1-c1ncnc2[nH]cnc12.Cl.Cl.Cl,Activity,[1],96%
same,Activity,[2],84%
same,Activity,[3],93%
same,Activity,[4],72%
same,Activity,[5],98%
same,Activity,[6],96%
same,Activity,[7],96%
same,Activity,[8],100%
same,Activity,[9],100%
same,Activity,[10],97%
same,Activity,[11],100%
same,clearance,[12],0.4 L/h/kg
same,Activity,[13],2%
same,Activity,[14],100%
same,Activity,[15],100%
same,Activity,[16],61%
same,IC50,Angiopoietin-1 receptor,0.12 µM
same,Activity,A-375,85%
same,IC50,[17],0.083 µM
same,Activity,[18],100%
same,Activity,[19],100%
same,Activity,[20],77%
same,Activity,[21],100%
same,bioavailability,[22],79%
same,Activity,[23],85%
same,Activity,[24],86%
same,Activity,[25],99%
same,Activity,[26],0.1%
same,Activity,[27],93%
same,Activity,[28],99%
same,Activity,[29],97%
same,Activity,[30],73%
same,Activity,[31],99%
same,Activity,[32],100%
same,Activity,[33],96%
same,Activity,[34],100%
same,Activity,[35],2.2%
same,Activity,[36],87%
